{"source": "patent US8895779B2", "about": "(BioAmber Inc., priority 2010, dated 2014)", "origin": "cited, not measured here", "settings": "Table 1, Run 1, acid charged"}
{"smiles": "O=C(O)CCCCC(=O)O", "note": "[AA, adipic acid]", "values": [{"measurement": "pKa1", "value": 4.43}]}
